{"source": "paper PMC5428509", "about": "“Irreversible inhibition of BTK kinase by a novel highly selective inhibitor CHMFL-BTK-11 suppresses inflammatory response in rheumatoid arthritis model” (Scientific Reports, 2017)", "assay_in_all_cases": "biochemical", "set-up_in_all_cases": "KinomeScan competition binding panel (DiscoveRx), percent of control at 1 uM", "settings_in_all_cases": "read-out: Percent Control", "key": {"HIPK1": {"target": "HIPK1 (Homo sapiens, UniProt Q86Z02)", "procedure,_shortened": "(§1)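 Selectivity profiled across 456 kinases/mutants by KinomeScan binding technology.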"}, "ERK8": {"target": "T1, ERK8 (Homo sapiens, UniProt Q8TD08)", "T1 construct": "gene MAPK15", "procedure,_shortened": "as §1"}, "PKN2": {"target": "PKN2 (Homo sapiens, UniProt Q16513)", "procedure,_shortened": "as §1"}, "RAF1": {"target": "RAF1 (Homo sapiens, UniProt P04049)", "procedure,_shortened": "as §1"}, "GRK7": {"target": "GRK7 (Homo sapiens, UniProt Q8WTQ7)", "sequence (Q8WTQ7 whole entry)": "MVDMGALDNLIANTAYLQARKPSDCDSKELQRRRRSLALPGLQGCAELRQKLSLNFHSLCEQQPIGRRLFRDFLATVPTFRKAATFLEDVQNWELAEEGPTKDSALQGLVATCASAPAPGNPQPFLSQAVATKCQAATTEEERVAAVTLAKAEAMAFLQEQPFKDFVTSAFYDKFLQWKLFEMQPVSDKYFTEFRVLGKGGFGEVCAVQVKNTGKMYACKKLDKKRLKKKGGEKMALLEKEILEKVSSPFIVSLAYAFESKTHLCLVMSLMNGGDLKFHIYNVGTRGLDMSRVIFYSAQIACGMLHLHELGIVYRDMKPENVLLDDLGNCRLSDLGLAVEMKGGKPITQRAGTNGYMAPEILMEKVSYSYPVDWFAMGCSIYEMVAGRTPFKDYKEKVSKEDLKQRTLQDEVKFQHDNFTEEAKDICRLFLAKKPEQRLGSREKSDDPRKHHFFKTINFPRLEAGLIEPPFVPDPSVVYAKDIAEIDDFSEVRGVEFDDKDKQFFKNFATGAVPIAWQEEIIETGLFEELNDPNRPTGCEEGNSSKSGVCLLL", "procedure,_shortened": "as §1"}, "BIKE": {"target": "T2, BIKE (Homo sapiens, UniProt Q9NSY1)", "T2 construct": "gene BMP2K", "procedure,_shortened": "as §1"}, "CDK2": {"target": "CDK2 (Homo sapiens, UniProt P24941)", "procedure,_shortened": "as §1"}, "PAK3": {"target": "PAK3 (Homo sapiens, UniProt O75914)", "procedure,_shortened": "as §1"}, "CHEK1": {"target": "CHEK1 (Homo sapiens, UniProt O14757)", "sequence (O14757 whole entry)": "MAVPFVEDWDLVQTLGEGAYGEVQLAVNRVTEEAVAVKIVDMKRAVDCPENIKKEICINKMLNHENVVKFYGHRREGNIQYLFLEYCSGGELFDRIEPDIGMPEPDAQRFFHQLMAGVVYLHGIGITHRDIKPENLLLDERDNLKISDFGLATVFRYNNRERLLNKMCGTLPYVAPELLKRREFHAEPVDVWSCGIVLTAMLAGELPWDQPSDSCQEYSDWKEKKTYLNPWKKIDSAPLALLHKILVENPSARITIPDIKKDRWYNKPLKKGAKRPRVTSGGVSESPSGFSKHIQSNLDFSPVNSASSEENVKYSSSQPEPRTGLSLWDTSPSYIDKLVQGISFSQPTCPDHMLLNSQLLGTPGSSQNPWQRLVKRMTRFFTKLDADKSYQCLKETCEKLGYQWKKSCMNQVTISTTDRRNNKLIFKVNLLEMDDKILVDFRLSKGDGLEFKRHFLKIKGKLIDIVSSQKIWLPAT", "procedure,_shortened": "as §1"}, "JNK1": {"target": "T3, JNK1 (Homo sapiens, UniProt P45983)", "T3 construct": "gene MAPK8", "procedure,_shortened": "as §1"}, "SGK3": {"target": "SGK3 (Homo sapiens, UniProt Q96BR1)", "sequence (Q96BR1 whole entry)": "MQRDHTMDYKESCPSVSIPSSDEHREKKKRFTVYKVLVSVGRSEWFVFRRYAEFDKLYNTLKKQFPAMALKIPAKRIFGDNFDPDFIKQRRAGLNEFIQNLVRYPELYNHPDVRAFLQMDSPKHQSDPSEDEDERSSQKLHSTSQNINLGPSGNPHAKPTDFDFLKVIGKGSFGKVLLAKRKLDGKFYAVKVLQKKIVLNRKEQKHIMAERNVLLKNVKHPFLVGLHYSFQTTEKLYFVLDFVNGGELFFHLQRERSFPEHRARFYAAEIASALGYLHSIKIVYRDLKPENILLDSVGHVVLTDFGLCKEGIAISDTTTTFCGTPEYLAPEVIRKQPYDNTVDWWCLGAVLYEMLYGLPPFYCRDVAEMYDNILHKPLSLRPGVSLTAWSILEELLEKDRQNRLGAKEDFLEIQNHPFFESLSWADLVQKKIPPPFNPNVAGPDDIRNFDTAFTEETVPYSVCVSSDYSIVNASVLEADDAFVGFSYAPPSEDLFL", "procedure,_shortened": "as §1"}, "RIPK2": {"target": "RIPK2 (Homo sapiens, UniProt O43353)", "procedure,_shortened": "as §1"}, "BUB1": {"target": "BUB1 (Homo sapiens, UniProt O43683)", "sequence (O43683 whole entry)": "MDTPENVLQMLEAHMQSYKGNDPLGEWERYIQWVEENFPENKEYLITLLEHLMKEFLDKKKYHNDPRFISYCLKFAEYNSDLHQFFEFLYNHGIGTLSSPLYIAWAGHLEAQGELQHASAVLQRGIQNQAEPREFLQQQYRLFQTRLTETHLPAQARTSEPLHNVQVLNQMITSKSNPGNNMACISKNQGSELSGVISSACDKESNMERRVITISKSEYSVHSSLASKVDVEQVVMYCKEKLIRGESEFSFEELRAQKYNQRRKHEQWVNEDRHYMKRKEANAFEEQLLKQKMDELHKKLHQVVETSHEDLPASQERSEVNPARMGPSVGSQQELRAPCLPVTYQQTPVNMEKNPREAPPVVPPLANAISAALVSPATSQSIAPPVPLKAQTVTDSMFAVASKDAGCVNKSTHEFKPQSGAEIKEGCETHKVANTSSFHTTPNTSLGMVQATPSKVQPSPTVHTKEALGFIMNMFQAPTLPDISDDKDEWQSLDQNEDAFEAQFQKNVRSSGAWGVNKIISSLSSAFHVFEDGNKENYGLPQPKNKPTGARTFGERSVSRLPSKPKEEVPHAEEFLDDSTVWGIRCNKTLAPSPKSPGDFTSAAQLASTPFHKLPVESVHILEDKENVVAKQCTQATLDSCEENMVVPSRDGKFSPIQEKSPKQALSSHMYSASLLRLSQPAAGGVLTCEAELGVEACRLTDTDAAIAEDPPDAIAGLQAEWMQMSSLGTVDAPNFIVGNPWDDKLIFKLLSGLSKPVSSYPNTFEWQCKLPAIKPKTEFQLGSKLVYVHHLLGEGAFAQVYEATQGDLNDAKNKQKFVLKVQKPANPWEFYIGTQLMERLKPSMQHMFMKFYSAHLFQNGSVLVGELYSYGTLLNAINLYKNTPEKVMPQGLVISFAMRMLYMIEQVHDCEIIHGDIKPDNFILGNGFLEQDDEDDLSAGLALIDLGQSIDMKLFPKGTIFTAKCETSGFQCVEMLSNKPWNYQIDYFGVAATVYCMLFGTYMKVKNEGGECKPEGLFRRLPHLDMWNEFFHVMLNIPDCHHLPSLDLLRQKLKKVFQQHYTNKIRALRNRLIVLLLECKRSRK", "procedure,_shortened": "as §1"}, "TAOK1": {"target": "TAOK1 (Homo sapiens, UniProt Q7L7X3)", "procedure,_shortened": "as §1"}, "PAK6": {"target": "PAK6 (Homo sapiens, UniProt Q9NQU5)", "sequence (Q9NQU5 whole entry)": "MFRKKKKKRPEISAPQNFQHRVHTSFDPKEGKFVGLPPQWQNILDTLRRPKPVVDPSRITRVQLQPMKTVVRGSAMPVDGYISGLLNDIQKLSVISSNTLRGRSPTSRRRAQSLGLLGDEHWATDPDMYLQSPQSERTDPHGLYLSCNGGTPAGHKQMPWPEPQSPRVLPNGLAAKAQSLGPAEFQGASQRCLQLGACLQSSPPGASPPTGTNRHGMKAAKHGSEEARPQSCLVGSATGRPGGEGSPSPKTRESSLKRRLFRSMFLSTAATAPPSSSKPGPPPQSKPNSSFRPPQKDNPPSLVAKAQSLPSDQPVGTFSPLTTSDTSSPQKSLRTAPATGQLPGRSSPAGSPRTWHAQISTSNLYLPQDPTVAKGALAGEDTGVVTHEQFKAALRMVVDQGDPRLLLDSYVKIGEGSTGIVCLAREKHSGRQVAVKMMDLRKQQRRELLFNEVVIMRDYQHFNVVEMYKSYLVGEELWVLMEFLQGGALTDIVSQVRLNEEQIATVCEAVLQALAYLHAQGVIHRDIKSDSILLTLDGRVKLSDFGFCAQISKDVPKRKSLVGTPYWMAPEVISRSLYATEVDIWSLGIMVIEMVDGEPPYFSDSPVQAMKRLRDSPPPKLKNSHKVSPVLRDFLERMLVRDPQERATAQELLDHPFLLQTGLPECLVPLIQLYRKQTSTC", "procedure,_shortened": "as §1"}, "MINK": {"target": "T4, MINK (Homo sapiens, UniProt Q8N4C8)", "T4 construct": "gene MINK1", "procedure,_shortened": "as §1"}, "MAP4K3": {"target": "MAP4K3 (Homo sapiens, UniProt Q8IVH8)", "procedure,_shortened": "as §1"}, "MKK7": {"target": "T5, MKK7 (Homo sapiens, UniProt O14733)", "T5 construct": "gene MAP2K7", "procedure,_shortened": "as §1"}, "MEK4": {"target": "T6, MEK4 (Homo sapiens, UniProt P45985)", "T6 construct": "gene MAP2K4", "procedure,_shortened": "as §1"}, "AAK1": {"target": "AAK1 (Homo sapiens, UniProt Q2M2I8)", "procedure,_shortened": "as §1"}, "RET(V804M)": {"target": "RET(V804M) (Homo sapiens, UniProt P07949, V804M)", "sequence (P07949 whole entry V804M)": "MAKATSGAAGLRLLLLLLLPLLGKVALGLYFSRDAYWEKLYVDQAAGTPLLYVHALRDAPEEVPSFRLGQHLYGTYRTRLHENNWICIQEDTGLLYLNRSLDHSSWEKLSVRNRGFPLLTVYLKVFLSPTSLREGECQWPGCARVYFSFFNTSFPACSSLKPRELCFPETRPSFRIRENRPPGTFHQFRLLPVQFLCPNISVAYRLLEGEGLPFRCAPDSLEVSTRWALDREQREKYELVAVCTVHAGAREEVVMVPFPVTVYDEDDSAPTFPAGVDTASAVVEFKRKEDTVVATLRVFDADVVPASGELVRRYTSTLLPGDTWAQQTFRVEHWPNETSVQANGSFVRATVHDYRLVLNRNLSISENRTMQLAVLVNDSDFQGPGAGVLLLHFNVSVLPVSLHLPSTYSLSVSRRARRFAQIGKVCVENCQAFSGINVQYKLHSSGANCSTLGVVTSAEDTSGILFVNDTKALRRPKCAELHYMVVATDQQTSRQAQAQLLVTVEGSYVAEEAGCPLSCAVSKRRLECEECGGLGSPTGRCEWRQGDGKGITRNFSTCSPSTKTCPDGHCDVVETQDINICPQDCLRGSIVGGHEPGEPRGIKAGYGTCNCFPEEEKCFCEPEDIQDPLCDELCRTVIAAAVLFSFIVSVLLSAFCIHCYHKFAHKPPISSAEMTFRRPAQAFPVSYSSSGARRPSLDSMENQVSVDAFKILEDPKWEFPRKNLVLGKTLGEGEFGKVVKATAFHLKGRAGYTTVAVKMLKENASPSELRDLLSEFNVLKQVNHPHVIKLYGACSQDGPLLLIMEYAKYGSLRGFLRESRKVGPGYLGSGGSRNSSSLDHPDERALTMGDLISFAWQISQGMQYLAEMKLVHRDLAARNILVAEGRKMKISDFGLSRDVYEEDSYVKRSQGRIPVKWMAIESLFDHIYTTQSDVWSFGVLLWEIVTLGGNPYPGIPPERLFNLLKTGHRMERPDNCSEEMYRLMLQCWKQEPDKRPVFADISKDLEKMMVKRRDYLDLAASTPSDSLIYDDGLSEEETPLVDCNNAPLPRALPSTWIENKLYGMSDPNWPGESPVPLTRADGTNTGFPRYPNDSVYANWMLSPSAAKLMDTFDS", "procedure,_shortened": "as §1"}, "PKAC-beta": {"target": "T7, PKAC-beta (Homo sapiens, UniProt P22694)", "T7 construct": "gene PRKACB", "procedure,_shortened": "as §1"}, "CSNK2A2": {"target": "CSNK2A2 (Homo sapiens, UniProt P19784)", "sequence (P19784 whole entry)": "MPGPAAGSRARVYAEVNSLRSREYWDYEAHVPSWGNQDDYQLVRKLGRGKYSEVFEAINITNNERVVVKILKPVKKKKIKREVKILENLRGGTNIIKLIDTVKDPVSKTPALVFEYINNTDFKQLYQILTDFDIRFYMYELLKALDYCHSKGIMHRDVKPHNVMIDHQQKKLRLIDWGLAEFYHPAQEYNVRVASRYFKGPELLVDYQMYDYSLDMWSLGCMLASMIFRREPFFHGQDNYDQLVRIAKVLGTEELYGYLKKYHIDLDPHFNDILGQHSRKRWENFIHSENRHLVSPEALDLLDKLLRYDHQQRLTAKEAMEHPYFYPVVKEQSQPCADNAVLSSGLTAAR", "procedure,_shortened": "as §1"}, "PRKG1": {"target": "PRKG1 (Homo sapiens, UniProt Q13976)", "procedure,_shortened": "as §1"}, "[1]": {"target": "T8, ABL1(Q252H)-nonphosphorylated (Homo sapiens, UniProt P00519, Q252H)", "T8 construct": "nonphosphorylated", "procedure,_shortened": "as §1"}}}
{"smiles": "C=CC(=O)Nc1cc(-n2c(=O)ccc3cnc4ccc(-n5cccn5)cc4c32)ccc1C", "note": "[CHMFL-BTK-11]", "values": [{"measurement": "remaining binding at 1 µM", "setting": "HIPK1", "value": 79, "unit": "%"}, {"measurement": "remaining binding at 1 µM", "setting": "ERK8", "value": 99, "unit": "%"}, {"measurement": "remaining binding at 1 µM", "setting": "PKN2", "value": 100, "unit": "%"}, {"measurement": "remaining binding at 1 µM", "setting": "RAF1", "value": 100, "unit": "%"}, {"measurement": "remaining binding at 1 µM", "setting": "GRK7", "value": 100, "unit": "%"}, {"measurement": "remaining binding at 1 µM", "setting": "BIKE", "value": 91, "unit": "%"}, {"measurement": "remaining binding at 1 µM", "setting": "CDK2", "value": 100, "unit": "%"}, {"measurement": "remaining binding at 1 µM", "setting": "PAK3", "value": 94, "unit": "%"}, {"measurement": "remaining binding at 1 µM", "setting": "CHEK1", "value": 100, "unit": "%"}, {"measurement": "remaining binding at 1 µM", "setting": "JNK1", "value": 72, "unit": "%"}, {"measurement": "remaining binding at 1 µM", "setting": "SGK3", "value": 86, "unit": "%"}, {"measurement": "remaining binding at 1 µM", "setting": "RIPK2", "value": 100, "unit": "%"}, {"measurement": "remaining binding at 1 µM", "setting": "BUB1", "value": 83, "unit": "%"}, {"measurement": "remaining binding at 1 µM", "setting": "TAOK1", "value": 100, "unit": "%"}, {"measurement": "remaining binding at 1 µM", "setting": "PAK6", "value": 100, "unit": "%"}, {"measurement": "remaining binding at 1 µM", "setting": "MINK", "value": 64, "unit": "%"}, {"measurement": "remaining binding at 1 µM", "setting": "MAP4K3", "value": 100, "unit": "%"}, {"measurement": "remaining binding at 1 µM", "setting": "MKK7", "value": 77, "unit": "%"}, {"measurement": "remaining binding at 1 µM", "setting": "MEK4", "value": 100, "unit": "%"}, {"measurement": "remaining binding at 1 µM", "setting": "AAK1", "value": 62, "unit": "%"}, {"measurement": "remaining binding at 1 µM", "setting": "RET(V804M)", "value": 100, "unit": "%"}, {"measurement": "remaining binding at 1 µM", "setting": "PKAC-beta", "value": 100, "unit": "%"}, {"measurement": "remaining binding at 1 µM", "setting": "CSNK2A2", "value": 52, "unit": "%"}, {"measurement": "remaining binding at 1 µM", "setting": "PRKG1", "value": 100, "unit": "%"}, {"measurement": "remaining binding at 1 µM", "setting": "[1]", "value": 100, "unit": "%"}]}
